Laboratory results taken from PubChem BioAssay (NCI).
Where “and” joins values, the source holds several entries; their conditions need not be identical. Equal values may be shown once.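 Growth conditions: 96-well plates. Treatment: test compound, 48 hours, 5 concentrations. Analysis: linear interpolation between bracketing concentrations; unreached endpoints set to highest concentration. GI50 is the concentration that inhibits growth by half. TGI is the concentration that stops growth completely.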

What was measured:
Assay in all cases: NCI tumour cell line growth inhibition, 48 h
[1] = system: A549 NSCLC
[2] = system: CAKI-1 renal
[3] = system: HCC-2998 colon
[4] = system: HL-60(TB) leukemia
[5] = system: OVCAR-5 ovarian
[6] = system: RPMI-8226 leukemia
[7] = system: RXF 393 renal
[8] = system: SK-MEL-28 melanoma
[9] = system: SK-MEL-5 melanoma
[10] = system: TK-10 renal

Row | Compound | TGI [1] [µM] | TGI [2] [µM] | TGI [3] [µM] | TGI [4] | TGI [5] [µM] | TGI [6] [µM] | TGI [7] [µM] | TGI [8] [µM] | TGI [9] [µM] | TGI [10] [µM] | GI50 [1] [µM] | GI50 [2] [µM] | GI50 [3] [µM] | GI50 [4] [µM] | GI50 [5] | GI50 [6] [µM] | GI50 [7] | GI50 [8] [µM] | GI50 [9] [µM] | GI50 [10] [µM]
1 | CCOc1ccc(N=Cc2ccnc3ccccc23)cc1 | > 100 | > 100 | 81.4 | 17 µM | > 100 | 35.1 | > 100 | > 100 | > 82.6 | > 100 |  |  |  |  |  |  |  |  |  | 
2 | C=C(CN1c2ccccc2Sc2ccccc21)c1ccc(C(=O)Nc2ccccc2N)cc1 | > 100 | > 50.2 | > 86.3 | > 100 µM | > 100 | > 25.4 | > 100 | > 100 | > 100 | > 100 | 11.4 | 8.83 | 14.6 | 0.184 | > 100 µM | 0.597 | > 100 µM | 43.5 | 44.7 | 23.9
3 | CCn1c(=N)sc2nc3ccccc3n2c1=O | > 100 | > 100 | > 100 | > 100 µM | > 100 | > 100 | > 100 | > 100 | > 100 | > 100 |  |  |  |  |  |  |  |  |  | 
4 | COC(=O)CC(=O)NCC1=CCC(=O)CC1 | > 100 | > 100 | > 100 | > 100 µM |  | > 100 | > 100 | > 100 | > 100 | > 100 |  |  |  |  |  |  |  |  |  | 
5 | Nc1ccccc1C(=O)NC(=O)Nc1ccc(Oc2ncc(Br)cn2)c(Cl)c1 | 13.4 | 1.72 | 0.19 | 0.0451 µM and 0.232 µM | 51.7 | 29.6 | 0.458 | 18.3 | 1.71 | 13.8 |  |  |  | 0.00489 |  |  |  |  | 0.00688 | 
6 | COC(=O)CC(C(C(C)=O)C(=O)OCc1ccccc1)N1C(=O)OC(c2ccccc2)C1c1ccccc1 (stereo unspecified) | > 100 | > 100 | > 100 | > 100 µM | > 100 | > 100 | > 100 | > 100 | > 100 | > 100 |  |  |  |  | > 100 µM and 34.3 µM |  | 29.1 µM and 84.9 µM |  |  | 
7 | CC(=O)OC1C(O[C@H]2CC[C@]34O[C@]35CC[C@]3(C)C(C6(C)CC[C@@H](C(C)(C)O)O6)[C@@H](O)CC3(C)[C@@H]5CC(OC3OC(CO)C(O)C(O)C3O)C4C2(C)C)OCC(O)C1O (stereo partly specified) | > 100 | > 100 | > 100 | > 53.3 µM | > 100 | > 71.3 | > 100 | > 100 | > 100 | > 100 |  |  |  |  |  |  |  |  |  | 
8 | CC1=C(C(=O)Nc2ccccc2)C(c2cc(Cl)cc(Cl)c2)C(C(=O)Nc2ccccc2)=C(C)N1 | 58.8 | 31.6 | 25.7 | 6.52 µM | 39 | 25.2 | 26.3 | 30.2 | 27.7 | 33.6 |  |  |  |  |  |  |  |  |  | 
9 | N#C/C(=C\c1ccccc1)C(NO)Nc1ccccc1 (stereo unspecified) | > 100 | > 100 | > 100 | > 100 µM | > 100 | > 100 | > 100 | > 100 | > 100 | > 100 |  |  |  |  |  |  |  |  |  | 
10 | CCOC(=O)C#Cc1c(C(=O)OCC)nnn1[C@@H]1O[C@H](CO)[C@H]2OC3(CCCCC3)O[C@H]21 | 35.8 | 3.31 | 32.8 | 5.88 µM | 22.6 | 7.97 | 3.46 | 4.51 | 26.6 | 3.28 | 19.9 | 1.76 | 18 | 1.87 | 8.09 µM | 3.07 | 1.8 µM | 2.06 | 13.7 | 1.79
11 | O=C1Nc2ccccc2/C1=C/c1cn(CC(O)Cn2cc(/C=C3\C(=O)Nc4ccccc43)c3ccccc32)c2ccccc12 (stereo unspecified) | 3.21 | 3.39 | 5.21 | 10.8 µM | 4.53 | 5.41 | 3.75 | 3.5 | 3.82 | 5.46 | 1.51 | 1.62 | 2.28 | 2.95 | 1.74 µM | 2.1 | 2.04 µM | 1.77 | 1.98 | 2.68
12 | CCc1nn2ncccc2c1-c1ccnc(NC2CC2)n1 | > 25 | > 25 | > 25 | > 25 µM | > 25 | > 25 | > 25 | > 25 | > 25 | > 25 | > 25 | > 22.1 | > 25 | > 25 | > 25 µM | > 25 | > 23.4 µM | > 25 | > 25 | > 25
13 | NC(=S)N/N=C1/CN(c2ccc(Cl)c(Cl)c2)CC(=O)C1c1nc2ccccc2s1 (stereo unspecified) | > 100 | > 100 | > 100 | > 100 µM | > 100 | > 100 | > 100 | > 100 | > 100 | > 100 |  |  |  |  |  |  |  |  |  | 
14 | COC(=O)CCC(=O)N1CC1C (stereo unspecified) | > 100 | > 100 | > 100 | > 100 µM | > 100 | > 100 | > 100 | > 100 | > 100 | > 100 |  |  |  |  |  |  |  |  |  | 
15 | Oc1c(O)c(Cl)c(Cl)c(Cl)c1Cl | 24.1 | 23 | 30.7 | 7.21 µM | 42.5 | 7.38 | 13.9 | 37.2 | 13.4 | 47.7 | 4.2 | 6.33 | 16.3 | 1.85 | 9.62 µM | 2.23 | 1.61 µM | 4.99 | 3.37 | 9.42
16 | O=C1C=C(Nc2ccc(S(=O)(=O)Nc3ncccn3)cc2)c2ccccc2C1=O | 57.9 | 89.1 | 36.6 | 72.7 µM | 34.4 | 97.2 | 48 | 60.6 | 32.9 | > 100 |  |  |  |  |  |  |  |  |  | 
17 | C1CC2=C(C1)C1=S(S2)SC2=C1CCC2 | > 100 | > 100 | > 100 | > 100 µM | > 100 | > 100 | > 100 | > 100 | > 100 | > 100 |  |  |  |  |  |  |  |  |  | 
18 | Cc1ccccc1N=Nc1c(-c2ccccc2)nn(C(=O)CC(=O)Nc2cccc(Cl)c2)c1-c1ccccc1 |  | > 100 | > 31.6 | 24.5 µM | > 31.6 | 21.2 | 28.4 | > 31.6 | 24.9 |  |  |  |  |  |  |  |  |  |  | 
